Experimental findings from patent publication US9918452B2, “Method and apparatus for controlling herbivore fowl populations” (2345422 Ontario Inc., priority 2013, dated 2018) are described below.

The test system of the experiment is Canada Geese. In words: Repellent-adulterated feed plus non-adulterated attractant feed in a recreational area. It is filed as in vivo. The text has this:
Owing to the problems encountered with both wide-scale repellent spraying and the use of repellent-treated feed on its own, a new approach to controlling the goose population at the site of Example 1 was developed. In this new approach, both repellent-adulterated feed in the form of cracked corn treated with methyl anthranilate, and non-adulterated feed (also in the form of cracked corn) was used.
In this approach to controlling the goose population at the site of Example 1, a commercially available animal feeder with a 200 lb. capacity tripod mounted hopper and SOLAR ELITE® dispensing head were obtained from On Time Wildlife Feeders (2488 Hwy 33, Ruston, La. 71270, U.S.A.). The feeder was modified as described in Example 5 to become a repellent station. The repellent reservoir was filled with an 8% solution of methyl anthranilate solution (prepared using fifty-five percent of a commercially available REJEX-IT® solution and forty-five percent water) and the flow rate from the repellent reservoir was adjusted to be approximately 0.0025 liters per second. The hopper of the repellent station was then filled with cracked corn.
In FIG. 1a a portion of the site described in Example 1 is depicted. […]

As to `COC(=O)c1ccccc1N` [methyl anthranilate], where the note is “8% methyl anthranilate solution sprayed on cracked corn at the repellent station, approx. 0.0025 liters per second”, the “acceptance of repellent-adulterated cracked corn by geese” value is recorded as “intolerable”. For the setting “repellent station with 8% methyl anthranilate solution plus unadulterated cracked corn on paved area, length of trial (six weeks)”, the “return of geese to the grassy area where they are not desired” value is recorded as “did not return to grassy area 100”.
